Data as given in patent publication EP2518159A1, “Method for determining the neurodevelopmental toxicity of a compound in vitro” (priority 2011, dated 2012).

Tests used:
Conditions in all cases: ES-D3 neural differentiation culture, exposed from day 3, harvested on day 4 (24h exposure); relative to DMSO control (1 = unchanged); 25 nM MeHg, 100 µM cyproconazole, 1000 µM valproic acid, 25 µM hexaconazole
[1] = tested on: Car4; assay: Gene expression change of Car4 in neural differentiation culture of embryonic stem cells (Affymetrix microarray)
Protocol: (§1) Murine embryonic stem cells (ESC) (ES-D3, ATCC, Rockville, MD, USA) were routinely subcultured every 2-3 days and grown as a monolayer in CM supplemented with leukemia inhibiting factor (LIF) (Chemicon, Temecula, CA, USA) at a final concentration of 1000 units/ml. The cells were maintained in a humidified atmosphere at 37°C and 5% CO2.
(§2) Differentiation of ESC into the neural lineage was carried out as described earlier (Theunissen et al., 2010). In brief, stem cell suspensions (3.75×10^4 cells/ml) were placed on ice before the initiation of the culture. Drops (20µl) containing 750 cells in CM were placed onto the inner side of the lid of a 90 cm Petri dish filled with phosphate-buffered saline (PBS) (Gibco BRL, Gaithersburg, MD) and incubated at 37 °C, 90% relative humidity and 5% CO2. After 3 days of hanging drop culture embryoid bodies (EB) had formed and were subsequently transferred to 60mm bacterial Petri dishes (Greiner Bio-one, Frickenhausen, Germany) containing CM supplemented with 0.5 µM retinoic acid (RA). On day 5, EB were plated on laminin (Roche, Basel, Switzerland) coated dishes (Corning Incorporated, Corning, NY, USA) in LS medium supplemented with 2.5 ug/ml fibronectin (Invitrogen, Carlsbad, CA, USA). One day later, on day 6, the LS medium was replaced by ITS medium. On day 7, EB were washed with phosphate buffered saline (PBS) (Gibco BRL, Gaithersburg, MD, USA) and incubated in cell dissociation buffer (Gibco BRL, Gaithersburg, MD, USA) for 3 minutes. Then EB were carefully detached from each Petri dish without dissociating the EBs and the entire content was replated on poly-L-ornithine (Sigma-Aldrich, Zwijndrecht, The Netherlands) and laminin coated dish in N2 medium supplemented with 10 ng/ml basic fibroblast growth factor (bFGF) (Srtathmann-Biotec AG, Englewood, CO, USA). The N2 medium supplemented with bFGF was replaced every other day for 7 days.
(§3) Control differentiation cultures were harvested on culture days 3, 4 and 5 (8 replicates per group). Differentiation cultures were exposed to the 3 neurodevelopmental toxicants and controls from day 3 onwards and harvested on day 4 (24h exposure) (8 replicates per group). Cells (-40-50 EB/sample) were directly collected in RNA Protect (Qiagen Benelux, Venlo, The Netherlands) to stabilize RNA, and total RNA was purified using the Qiagen RNEasy Plus Mini Kit (Qiagen Benelux, Venlo, The Netherlands) following the manufacturer's instructions. RNA quantity was determined using the NanoDrop Spectophotometer (Isogen Lifescience, de Meern, The Netherlands). RNA integrity was assessed on the 2100 Bioanalyzer (Agilent, Santa Clara, CA, USA) using the RNA 6000 Nano Chip Kit (Agilent, Santa Clara, CA, USA), and good quality RNA was used for gene expression analysis (RNA integrity number (RIN) > 8.0).

[2] = tested on: Emilin2; assay: Gene expression change of Emilin2 in neural differentiation culture of embryonic stem cells (Affymetrix microarray)
Protocol: as §1, §2, §3

[3] = tested on: Shisa6; assay: Gene expression change of Shisa6 in neural differentiation culture of embryonic stem cells (Affymetrix microarray)
Protocol: as §1, §2, §3

Compound | Ratio, gene expression change Car4 [1] | Ratio, gene expression change Emilin2 [2] | Ratio, gene expression change Shisa6 [3]
CC(C1CC1)C(O)(Cn1cncn1)c1ccc(Cl)cc1 (stereo not drawn) [Cyp, Cyproconazole] | 0.777 | 1.270 | 1.228
CCCCC(O)(Cn1cncn1)c1ccc(Cl)cc1Cl (stereo not drawn) [Hex, Hexaconazole] | 0.936 | 1.185 | 1.096
[CH3][Hg][Cl] [MeHg, Methylmercury chloride] | 0.686 | 1.351 | 1.380
CCCC(CCC)C(=O)[O-].[Na+] [VPA, Valproic acid sodium salt] | 1.373 | 2.063 | 0.752
